Experimental findings from publication PMC7818921, “Synthesis and biological evaluation of heterocyclic 1,2,4-triazole scaffolds as promising pharmacological agents” (BMC Chemistry, 2021) are described below.

What all share (type): cell-based
The subject of test [1] is Bacillus subtilis. The test is described as follows: In vitro antimicrobial screening, tube dilution method. The following applies: B. substilis, Gram +ve, nutrient broth, 37 ± 1 °C, 24 h, read-out: Minimum inhibitory concentration.
Test [2] concerns Escherichia coli. Described as above. The following applies: Escherichia coli; E. coli, Gram −ve; nutrient broth, 37 ± 1 °C, 24 h; read-out: Minimum inhibitory concentration.
Test [3] deals with Pseudomonas aeruginosa. Described as above. The following applies: P. aeruginosa, Gram −ve, nutrient broth, 37 ± 1 °C, 24 h, read-out: Minimum inhibitory concentration.
Test [4] deals with Gram-positive (B. subtilis), Gram-negative (P. aeruginosa and E. coli) bacterial strains. The experiment in a line: Tube dilution method, MIC of antibacterial standards quoted without strain. The conditions noted are these: antibacterial standard, strain not given.

≈ marks a conversion by molar mass, not a printed value. Where two headings read alike, the source gives them in different places.

As for `O=C(O)c1cn(C2CC2)c2cc(N3CCNCC3)c(F)cc2c1=O` [Ciprofloxacin, reference compound], the MIC in test [1] was found to be 18.0 µM (≈ 5.96 µg/mL); in test [1] (Bacillus subtilis), 18 µM (≈ 5.96 µg/mL); in test [2] it was 37.7 µM (≈ 12.5 µg/mL); in test [3] it was 18.0 µM (≈ 5.96 µg/mL); in test [3] (Pseudomonas aeruginosa), 18 µM (≈ 5.96 µg/mL); in test [4], 18.1 µM.
